Test results: ChEMBL document CHEMBL1201861, “Genomics of Drug Sensitity in Cancer screening data, Wellcome Trust Sanger Institute”

What was measured:
Experiment in all cases: cells
[1] = test system: NCI-H1623; format: functional, cell-based, Homo sapiens; details: Homo sapiens, NCI-H1623;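 also: cell viability assay used as the read-out for growth inhibition of NCI-H1623 cells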
Description: SANGER: Inhibition of human NCI-H1623 cell growth in a cell viability assay.

[2] = test system: ACHN; format: functional, cell-based, Homo sapiens; details: Homo sapiens, ACHN;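 also: cell viability read-out used to gauge how strongly growth of human ACHN cells is suppressed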
Description: SANGER: Inhibition of human ACHN cell growth in a cell viability assay.

[3] = test system: NCI-H1648; format: functional, cell-based, Homo sapiens; details: Homo sapiens, NCI-H1648;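 also: cell viability assay measuring inhibition of NCI-H1648 cell growth, from the Sanger screening data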
Description: SANGER: Inhibition of human NCI-H1648 cell growth in a cell viability assay.

[4] = test system: A388; format: functional, cell-based, Homo sapiens; details: Homo sapiens, A388;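 also: growth inhibition of human A388 cells, read out with a cell viability assay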
Description: SANGER: Inhibition of human A388 cell growth in a cell viability assay.

[5] = test system: HuP-T3; format: functional, cell-based, Homo sapiens; details: Homo sapiens, HuP-T3;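 also: HuP-T3 cell growth inhibition, read out with a cell viability assay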
Description: SANGER: Inhibition of human HuP-T3 cell growth in a cell viability assay.

[6] = test system: MKN-7; format: functional, cell-based, Homo sapiens; details: Homo sapiens, MKN-7;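 also: growth inhibition of MKN-7 cells, read out with a cell viability assay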
Description: SANGER: Inhibition of human MKN7 cell growth in a cell viability assay.

[7] = test system: J82; format: functional, cell-based; details: Homo sapiens;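 also: growth inhibition of J82 cells, read out with a cell viability assay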
Description: SANGER: Inhibition of human J82 cell growth in a cell viability assay.

[8] = test system: ONS-76; format: functional, cell-based, Homo sapiens; details: Homo sapiens, ONS-76;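 also: growth inhibition of human ONS-76 cells, read out with a cell viability assay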
Description: SANGER: Inhibition of human ONS-76 cell growth in a cell viability assay.

[9] = test system: HGC-27; format: functional, cell-based, Homo sapiens; details: Homo sapiens, HGC-27;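 also: growth inhibition of human HGC-27 cells, read out in a cell viability assay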
Description: SANGER: Inhibition of human HGC-27 cell growth in a cell viability assay.

[10] = test system: NTERA-2-cl-D1; format: functional, cell-based, Homo sapiens; details: Homo sapiens, NTERA-2-cl-D1;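 also: inhibition of cell growth, measured with a cell viability assay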
Description: SANGER: Inhibition of human NTERA-S-cl-D1 cell growth in a cell viability assay.

[11] = test system: LC-2-ad; format: functional, cell-based, Homo sapiens; details: Homo sapiens, LC-2-ad;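 also: growth inhibition of human LC-2-ad cells, read out with a cell viability assay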
Description: SANGER: Inhibition of human LC-2-ad cell growth in a cell viability assay.

[12] = test system: HCC70; format: functional, cell-based, Homo sapiens; details: Homo sapiens, HCC70;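 also: cell viability assay measuring how strongly the compound suppresses proliferation of HCC70 cells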
Description: SANGER: Inhibition of human HCC70 cell growth in a cell viability assay.

[13] = test system: SW1990; format: functional, cell-based, Homo sapiens; details: Homo sapiens, SW1990;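 also: cell growth inhibition determined with a viability assay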
Description: SANGER: Inhibition of human SW1990 cell growth in a cell viability assay.

[14] = test system: SCC-15; format: functional, cell-based, Homo sapiens; details: Homo sapiens, SCC-15;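 also: growth inhibition of SCC-15 cells, read out with a cell viability assay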
Description: SANGER: Inhibition of human SCC-15 cell growth in a cell viability assay.

[15] = test system: EW-13; format: functional, cell-based; details: Homo sapiens;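 also: growth inhibition of EW-13 cells, read out with a cell viability assay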
Description: SANGER: Inhibition of human EW-13 cell growth in a cell viability assay.

[16] = test system: MZ7-mel; format: functional, cell-based, Homo sapiens; details: Homo sapiens, MZ7-mel;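 also: growth inhibition of human MZ7-mel cells, measured by a cell viability assay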
Description: SANGER: Inhibition of human MZ7-mel cell growth in a cell viability assay.

[17] = test system: HN; format: functional, cell-based, Homo sapiens; details: Homo sapiens, HN
Description: SANGER: Inhibition of human HN cell growth in a cell viability assay.

[18] = test system: CAMA-1; format: functional, cell-based, Homo sapiens; details: Homo sapiens, CAMA-1;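 also: growth inhibition of CAMA-1 cells, read out with a cell viability assay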
Description: SANGER: Inhibition of human CAMA-1 cell growth in a cell viability assay.

[19] = test system: MDA-MB-361; format: functional, cell-based, Homo sapiens; details: Homo sapiens, MDA-MB-361
[20] = test system: NCI-H1693; format: functional, cell-based, Homo sapiens; details: Homo sapiens, NCI-H1693;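 also: growth inhibition of the human cell line, read out with a cell viability assay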
Description: SANGER: Inhibition of human NCI-H1693 cell growth in a cell viability assay.

[21] = test system: MZ2-MEL; format: functional, cell-based, Homo sapiens; details: Homo sapiens, MZ2-MEL;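 also: growth inhibition of MZ2-MEL cells read out with a cell viability assay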
Description: SANGER: Inhibition of human MZ2-MEL cell growth in a cell viability assay.

[22] = test system: EM-2; format: functional, cell-based; details: Homo sapiens;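 also: growth inhibition of EM-2 cells, read out with a cell viability assay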
Description: SANGER: Inhibition of human EM-2 cell growth in a cell viability assay.

[23] = test system: HuP-T4; format: functional, cell-based, Homo sapiens; details: Homo sapiens, HuP-T4;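 also: cell viability assay measuring how much HuP-T4 cell growth is inhibited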
Description: SANGER: Inhibition of human HuP-T4 cell growth in a cell viability assay.

[24] = test system: KY821; format: functional, cell-based; details: Homo sapiens;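 also: growth inhibition of human KY821 cells, read out by a cell viability assay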
Description: SANGER: Inhibition of human KY821 cell growth in a cell viability assay.

[25] = test system: LK-2; format: functional, cell-based, Homo sapiens; details: Homo sapiens, LK-2;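 also: growth inhibition of LK-2 cells, read out with a viability assay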
Description: SANGER: Inhibition of human LK-2 cell growth in a cell viability assay.

[26] = test system: SW 954; format: functional, cell-based, Homo sapiens; details: Homo sapiens, SW 954;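 also: growth inhibition of SW954 human cancer cells, read out as cell viability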
Description: SANGER: Inhibition of human SW954 cell growth in a cell viability assay.

[27] = test system: A-375; format: functional, cell-based, Homo sapiens; details: Homo sapiens, A-375;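 also: growth inhibition of A375 cells, read out with a cell viability assay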
Description: SANGER: Inhibition of human A375 cell growth in a cell viability assay.

[28] = test system: TYK-nu; format: functional, cell-based, Homo sapiens; details: Homo sapiens, TYK-nu;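 also: growth inhibition of human TYK-nu cells, read out by a cell viability assay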
Description: SANGER: Inhibition of human TYK-nu cell growth in a cell viability assay.

[29] = test system: SW1417; format: functional, cell-based, Homo sapiens; details: Homo sapiens, SW1417;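 also: growth inhibition of human SW1417 cells, read out with a cell viability assay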
Description: SANGER: Inhibition of human SW1417 cell growth in a cell viability assay.

[30] = test system: COLO-668; format: functional, cell-based, Homo sapiens; details: Homo sapiens, COLO-668
Description: SANGER: Inhibition of human COLO-668 cell growth in a cell viability assay.

[31] = test system: TE-8; format: functional, cell-based, Homo sapiens; details: Homo sapiens, TE-8;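 also: growth inhibition of TE-8 cells, measured with a cell viability readout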
Description: SANGER: Inhibition of human TE-8 cell growth in a cell viability assay.

[32] = test system: NB5; format: functional, cell-based, Homo sapiens; details: Homo sapiens, NB5;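 also: growth inhibition of NB5 cells, read out as cell viability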
Description: SANGER: Inhibition of human NB5 cell growth in a cell viability assay.

[33] = test system: HT-1376; format: functional, cell-based, Homo sapiens; details: Homo sapiens, HT-1376
Description: SANGER: Inhibition of human HT-1376 cell growth in a cell viability assay.

[34] = test system: DOHH-2; format: functional, cell-based; details: Homo sapiens;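 also: growth inhibition of human DOHH-2 cells, read out with a cell viability assay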
Description: SANGER: Inhibition of human DOHH-2 cell growth in a cell viability assay.

[35] = test system: RCM-1; format: functional, cell-based, Homo sapiens; details: Homo sapiens, RCM-1;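 also: growth inhibition of the RCM-1 line, determined with a cell viability readout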
Description: SANGER: Inhibition of human RCM-1 cell growth in a cell viability assay.

[36] = test system: ChaGo-K-1; format: functional, cell-based; details: Homo sapiens;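 also: growth inhibition of ChaGo-K-1 cells, read out with a cell viability assay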
Description: SANGER: Inhibition of human ChaGo-K-1 cell growth in a cell viability assay.

[37] = test system: TE-6; format: functional, cell-based, Homo sapiens; details: Homo sapiens, TE-6;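 also: growth inhibition of TE-6 cells, read out with a cell viability assay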
Description: SANGER: Inhibition of human TE-6 cell growth in a cell viability assay.

[38] = test system: SW-620; format: functional, cell-based, Homo sapiens; details: Homo sapiens, SW-620;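 also: growth inhibition of human SW-620 cells, measured by a cell viability assay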
Description: SANGER: Inhibition of human SW620 cell growth in a cell viability assay.

[39] = test system: VMRC-RCZ; format: functional, cell-based; details: Homo sapiens;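 also: growth inhibition measured with a cell viability assay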
Description: SANGER: Inhibition of human VMRC-RCZ cell growth in a cell viability assay.

[40] = test system: LS-411N; format: functional, cell-based, Homo sapiens; details: Homo sapiens, LS-411N
[41] = test system: MHH-PREB-1; format: functional, cell-based; details: Homo sapiens;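 also: cell viability assay measuring inhibition of proliferation of human MHH-PREB-1 cells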
Description: SANGER: Inhibition of human MHH-PREB-1 cell growth in a cell viability assay.

[42] = test system: 8-MG-BA; format: functional, cell-based, Homo sapiens; details: Homo sapiens, 8-MG-BA;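 also: growth inhibition of 8-MG-BA cells, read out with a cell viability assay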
Description: SANGER: Inhibition of human 8-MG-BA cell growth in a cell viability assay.

[43] = test system: BV-173; format: functional, cell-based; details: Homo sapiens
Description: SANGER: Inhibition of human BV-173 cell growth in a cell viability assay.

[44] = test system: LOX IMVI; format: functional, cell-based; details: Homo sapiens
Description: SANGER: Inhibition of human LOXIMVI cell growth in a cell viability assay.

[45] = test system: ES6; format: functional, cell-based, Homo sapiens; details: Homo sapiens, ES6;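 also: growth inhibition of human ES6 cells, read out with a cell viability assay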
Description: SANGER: Inhibition of human ES6 cell growth in a cell viability assay.

[46] = test system: ALL-PO; format: functional, cell-based; details: Homo sapiens;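 also: growth inhibition of ALL-PO cells, read out by a cell viability assay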
Description: SANGER: Inhibition of human ALL-PO cell growth in a cell viability assay.

[47] = test system: CGTH-W-1; format: functional, cell-based, Homo sapiens; details: Homo sapiens, CGTH-W-1;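 also: growth inhibition of human CGTH-W-1 cells measured by cell viability assay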
Description: SANGER: Inhibition of human CGTH-W-1 cell growth in a cell viability assay.

[48] = test system: PFSK-1; format: functional, cell-based, Homo sapiens; details: Homo sapiens, PFSK-1;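 also: cell viability assay measuring how strongly compounds suppress growth of human PFSK-1 cells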
Description: SANGER: Inhibition of human PFSK-1 cell growth in a cell viability assay.

[49] = test system: AGS; format: functional, cell-based, Homo sapiens; details: Homo sapiens, AGS;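 also: growth inhibition of AGS cells, determined with a cell viability assay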
Description: SANGER: Inhibition of human AGS cell growth in a cell viability assay.

[50] = test system: DU-4475; format: functional, cell-based; details: Homo sapiens
Description: SANGER: Inhibition of human DU-4475 cell growth in a cell viability assay.

[51] = test system: HL-60; format: functional, cell-based; details: Homo sapiens;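 also: growth inhibition of human HL-60 cells, read out with a cell viability assay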
Description: SANGER: Inhibition of human HL-60 cell growth in a cell viability assay.

[52] = test system: JVM-2; format: functional, cell-based; details: Homo sapiens;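 also: growth inhibition of JVM-2 cells determined by a cell viability assay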
Description: SANGER: Inhibition of human JVM-2 cell growth in a cell viability assay.

## COc1cc(F)c(F)c(Nc2ccc(I)cc2F)c1NS(=O)(=O)C1(CC(O)CO)CC1 (stereo unspecified)
[1]
  IC50: 1.78 µM
[2]
  IC50: > 5 µM
[3]
  IC50: > 5 µM
[4]
  IC50: > 5 µM
[5]
  IC50: > 5 µM
[6]
  IC50: > 5 µM
[7]
  IC50: > 5 µM
[8]
  IC50: 0.5 µM
[9]
  IC50: > 5 µM
[10]
  IC50: > 5 µM
[11]
  IC50: > 5 µM
[12]
  IC50: > 5 µM
[13]
  IC50: > 5 µM
[14]
  IC50: > 5 µM
[15]
  IC50: > 5 µM
[16]
  IC50: 0.375 µM
[17]
  IC50: 1.12 µM
[18]
  IC50: > 5 µM
[19]
  IC50: > 5 µM
[20]
  IC50: > 5 µM
[21]
  IC50: 0.319 µM
[22]
  IC50: > 5 µM
[23]
  IC50: 0.514 µM
[24]
  IC50: 0.107 µM
[25]
  IC50: > 5 µM
[26]
  IC50: > 5 µM
[27]
  IC50: 0.12 µM
[28]
  IC50: 0.441 µM
[29]
  IC50: > 5 µM
[30]
  IC50: > 5 µM
[31]
  IC50: 1.12 µM
[32]
  IC50: 0.978 µM
[33]
  IC50: > 5 µM
[34]
  IC50: > 5 µM
[35]
  IC50: 0.136 µM
[36]
  IC50: > 5 µM
[37]
  IC50: > 5 µM
[38]
  IC50: 0.276 µM
[39]
  IC50: > 5 µM
[40]
  IC50: 0.403 µM
[41]
  IC50: > 5 µM
[42]
  IC50: > 5 µM
[43]
  IC50: 2.38 µM
[44]
  IC50: 0.477 µM
[45]
  IC50: > 5 µM
[46]
  IC50: > 5 µM
[47]
  IC50: 2.73 µM
[48]
  IC50: > 5 µM
[49]
  IC50: 0.24 µM
[50]
  IC50: 0.0183 µM
[51]
  IC50: 0.0324 µM
[52]
  IC50: > 5 µM

## CCOc1nc(NC(=O)Cc2cc(OC)ccc2OC)cc(N)c1C#N
[1]
  IC50: > 10 µM
[2]
  IC50: > 10 µM
[3]
  IC50: > 10 µM
[4]
  IC50: > 10 µM
[5]
  IC50: > 10 µM
[6]
  IC50: > 10 µM
[7]
  IC50: > 10 µM
[8]
  IC50: > 10 µM
[9]
  IC50: > 10 µM
[10]
  IC50: > 10 µM
[11]
  IC50: > 10 µM
[12]
  IC50: > 10 µM
[13]
  IC50: > 10 µM
[14]
  IC50: > 10 µM
[15]
  IC50: > 10 µM
[16]
  IC50: > 10 µM
[17]
  IC50: > 10 µM
[18]
  IC50: > 10 µM
[19]
  IC50: > 10 µM
[20]
  IC50: > 10 µM
[21]
  IC50: > 10 µM
[22]
  IC50: > 10 µM
[23]
  IC50: > 10 µM
[24]
  IC50: > 10 µM
[25]
  IC50: > 10 µM
[26]
  IC50: > 10 µM
[27]
  IC50: > 10 µM
[28]
  IC50: > 10 µM
[29]
  IC50: > 10 µM
[30]
  IC50: > 10 µM
[31]
  IC50: > 10 µM
[32]
  IC50: > 10 µM
[33]
  IC50: > 10 µM
[34]
  IC50: > 10 µM
[35]
  IC50: > 10 µM
[36]
  IC50: > 10 µM
[37]
  IC50: > 10 µM
[38]
  IC50: > 10 µM
[39]
  IC50: > 10 µM
[40]
  IC50: > 10 µM
[41]
  IC50: > 10 µM
[42]
  IC50: > 10 µM
[43]
  IC50: > 10 µM
[44]
  IC50: > 10 µM
[45]
  IC50: > 10 µM
[46]
  IC50: > 10 µM
[47]
  IC50: > 10 µM
[48]
  IC50: > 10 µM
[49]
  IC50: > 10 µM
[50]
  IC50: > 10 µM
[51]
  IC50: > 10 µM
[52]
  IC50: > 10 µM

## COc1ccc(C2=N[C@@H](c3ccc(Cl)cc3)[C@@H](c3ccc(Cl)cc3)N2C(=O)N2CCNC(=O)C2)c(OC(C)C)c1 [NUTLIN-3]
[1]
  IC50: > 8 µM
[2]
  IC50: > 8 µM
[3]
  IC50: > 8 µM
[4]
  IC50: > 8 µM
[5]
  IC50: > 8 µM
[6]
  IC50: > 8 µM
[7]
  IC50: > 8 µM
[8]
  IC50: 5.57 µM
[9]
  IC50: > 8 µM
[10]
  IC50: > 8 µM
[11]
  IC50: > 8 µM
[12]
  IC50: > 8 µM
[13]
  IC50: > 8 µM
[14]
  IC50: > 8 µM
[15]
  IC50: > 8 µM
[16]
  IC50: > 8 µM
[17]
  IC50: > 8 µM
[18]
  IC50: > 8 µM
[19]
  IC50: > 8 µM
[20]
  IC50: > 8 µM
[21]
  IC50: 4.5 µM
[22]
  IC50: > 8 µM
[23]
  IC50: > 8 µM
[24]
  IC50: > 8 µM
[25]
  IC50: > 8 µM
[26]
  IC50: 6.56 µM
[27]
  IC50: 4.34 µM
[28]
  IC50: > 8 µM
[29]
  IC50: > 8 µM
[30]
  IC50: > 8 µM
[31]
  IC50: > 8 µM
[32]
  IC50: 6.56 µM
[33]
  IC50: > 8 µM
[34]
  IC50: 2.42 µM
[35]
  IC50: > 8 µM
[36]
  IC50: > 8 µM
[37]
  IC50: > 8 µM
[38]
  IC50: > 8 µM
[39]
  IC50: > 8 µM
[40]
  IC50: > 8 µM
[41]
  IC50: > 8 µM
[42]
  IC50: > 8 µM
[43]
  IC50: 2.84 µM
[44]
  IC50: 3.86 µM
[45]
  IC50: > 8 µM
[46]
  IC50: > 8 µM
[47]
  IC50: > 8 µM
[48]
  IC50: > 8 µM
[49]
  IC50: 6.15 µM
[50]
  IC50: 2.8 µM
[51]
  IC50: > 8 µM
[52]
  IC50: > 8 µM
